Legend:
[1] = system: peripheral opioid receptors; test: peripherally selective activity (internal results); format: in vivo
Description: The invention embodies usage of any of these compounds or derivatives or metabolites thereof. […] In combinations, any opioid analgesic is a feasible component, embodied in the combination patents mentioned above. An example is a combination product of oxycodone or hydrocodone with 6beta-naltrexol.

mu opioid receptor [2] = molecular target: mu opioid receptor (Homo sapiens, UniProt P35372); settings: cited from earlier work
Sequence of mu opioid receptor (Homo sapiens, UniProt P35372) (P35372 whole entry, species assumed): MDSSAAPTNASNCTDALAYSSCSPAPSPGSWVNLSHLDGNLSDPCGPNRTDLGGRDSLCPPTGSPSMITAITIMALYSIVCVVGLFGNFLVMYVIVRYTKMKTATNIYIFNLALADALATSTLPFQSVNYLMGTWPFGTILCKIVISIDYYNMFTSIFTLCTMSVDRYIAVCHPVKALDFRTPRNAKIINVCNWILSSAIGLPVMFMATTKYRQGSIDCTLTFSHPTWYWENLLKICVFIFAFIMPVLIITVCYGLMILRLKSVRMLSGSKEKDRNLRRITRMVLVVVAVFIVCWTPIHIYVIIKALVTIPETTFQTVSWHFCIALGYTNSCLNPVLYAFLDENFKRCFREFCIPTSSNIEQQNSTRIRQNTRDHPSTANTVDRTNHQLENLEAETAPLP

mu opioid receptor [3] = molecular target: T1, mu opioid receptor (Mus musculus, UniProt P42866); test: internal unpublished: co-administration with morphine or methadone, subsequent opioid withdrawal, mice; format: in vivo; settings: dose as low as 0.01 mg/kg given together with morphine or methadone
T1 construct: from tissue; host or cells: living mice (whole-animal pharmacology)
T1 sequence (P42866 whole entry): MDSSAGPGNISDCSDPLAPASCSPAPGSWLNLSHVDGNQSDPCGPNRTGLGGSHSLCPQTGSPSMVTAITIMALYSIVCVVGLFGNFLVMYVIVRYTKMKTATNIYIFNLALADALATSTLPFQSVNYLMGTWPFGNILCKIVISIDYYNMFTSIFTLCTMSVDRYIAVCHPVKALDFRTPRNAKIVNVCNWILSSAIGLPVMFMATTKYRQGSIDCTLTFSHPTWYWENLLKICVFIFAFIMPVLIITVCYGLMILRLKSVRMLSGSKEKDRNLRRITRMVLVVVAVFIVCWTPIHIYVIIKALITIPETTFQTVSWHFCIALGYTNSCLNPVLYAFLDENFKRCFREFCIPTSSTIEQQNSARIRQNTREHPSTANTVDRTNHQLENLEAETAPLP
Description: (§1) (See Corder G, Doolen S, Donahue R R, Winter M, Jutras B, He Y, Hu X, Wieskopf J S, Mogil J S, Storm D R, Wang Z J, McCarson K E, and Taylor B K, Constitutive μ-opioid receptor activity leads to long-term endogenous analgesia and dependence. Science 2013; 341,1394-1399; Corder G, Tawfik V L, Wang D, Sypek E I, Low S A, Dickinson J R, Sotoudeh C, Clark J D, Barres B A, Bohlen C J, Scherrer (2017). Loss of μ opioid receptor signaling in nociceptors, but not microglia, abrogates morphine tolerance without disrupting analgesia. Nat Med. 23:164-173; J. Oberdick, Y. L., M. A. Phelps, M. S. Yudovich, K. Schilling, and W. Sadee. Preferential delivery of an opioid antagonist to the fetal brain in pregnant mice. J. Pharmacol. Exp. Ther. 358: 22-30 (2016).

mu opioid receptor [4] = test: internal unpublished: co-administration with morphine or methadone, subsequent opioid withdrawal, guinea pigs; format: in vivo; settings: dose as low as 0.01 mg/kg given together with morphine or methadone
Description: as §1

[5] = molecular target: peripheral and central opioid receptors; test: blocking morphine iv effects (analgesia, slowing of bowel movement) in opioid naive subjects; format: in vivo, humans
Procedure: Recommended doses are 20 mg (range 10-80 mg) once or twice daily for 4-8 days, then 40 mg (range 20-120 mg) once or twice daily for 1-4 weeks, and if necessary, further escalation to 100 mg (range 40-300 mg) once or twice daily for maintenance. […] Dosing schedules can be facilitated by designing sustained release formulations as described in preceding incorporated patents.

oral bioavailability = format: in vivo; settings: value assumed for oral dosing
Procedure: This step applies to opioid use disorders. […] The recommended initial dose is 2 mg naltrexol orally (assuming ˜30% oral bioavailability; estimated dosage range 0.5-10 mg), once or twice daily for 2-4 days, followed by 6 mg once or twice daily for 4-8 days (estimated dosage range 2-20 mg twice daily). Step 1 is designed to suppress peripheral effects of the opioid drug with minimal peripheral withdrawal symptoms, and reverse at least partially opioid dependence.
Opioid antagonist maintenance with 6-beta-naltrexol may require 100 mg (dosage range 40-300 mg) per day orally (assuming 20-40% bioavailability). […] Ceasing opioid use altogether must be medically supervised for at least one year to determine the rate of recidivism.

opioid receptors = settings: acutely morphine-dependent mice; cited from earlier work
mu opioid receptor [6] = molecular target: T1, mu opioid receptor; settings: 0.02 mg/kg co-injected s.c. with 20 mg/kg morphine for several days, juvenile mice; cited from earlier work
[7] = system: peripheral and central opioid receptors; settings: methadone maintenance subjects, single intravenous dose 0.5-1 mg; cited from earlier work
[8] = in vivo; cited from earlier work
[9] = system: rats habituated to high alcohol consumption; settings: acute; cited from earlier work
[10] = system: peripheral and central opioid receptors; test: intravenous 6beta-naltrexol in methadone maintenance subjects
[11] = system: peripheral and central opioid receptors; settings: mice, given orally; cited from earlier work
[12] = system: spontaneous opioid receptor activity; settings: opioid dependent mice, 24 hours after the last morphine dose; cited from earlier work
[13] = 4 methadone replacement patients, IV doses up to 1 mg

SMILES: CC(=O)N[C@@H]1CC[C@@]2(O)[C@H]3Cc4ccc(O)c5c4[C@@]2(CCN3CC2CC2)[C@@H]1O5 [6beta-naltrexamide]
- peripherally selective activity [1]: strong peripherally selective activity
- type of opioid antagonism (mu opioid receptor [2]): neutral antagonism

SMILES: Oc1ccc2c3c1O[C@H]1[C@H](O)CC[C@@]4(O)[C@@H](C2)N(CC2CC2)CC[C@]314 [6beta-naltrexol]
- subsequent opioid withdrawal (mu opioid receptor [3]): reduces or prevents subsequent opioid withdrawal
- subsequent opioid withdrawal (mu opioid receptor [4]): reduces or prevents subsequent opioid withdrawal
- IC50 for blocking morphine induced slowing of bowel movement ([5]; iv): ~3 mg
- block of analgesia caused by 10 mg morphine iv ([5]; single dose of 20 mg iv, opioid naive subjects): failed to block analgesia
- oral bioavailability (oral bioavailability; listed as 6-beta-naltrexol): 20-40%
- oral bioavailability (oral bioavailability; listed as naltrexol): ~30%
- effect on naloxone induced withdrawal jumping (opioid receptors): prevent naloxone (inverse agonist) induced withdrawal jumping
- naloxone-withdrawal jumping after co-injection with morphine (mu opioid receptor [6]): significantly reduced
- central withdrawal symptoms [7]: no central withdrawal symptoms
- effect on opioid induced constipation [7]: can reverse opioid induced constipation
- half-life compared with typical opioid analgesics [8]: longer half-life
- alcohol and sucrose intake [9]: prevents both alcohol and sucrose intake acutely, but only at high doses
- tolerated IV dose ([10]; 4 methadone replacement patients sensitive to 0.05 mg naloxone i.v.): up to 1 mg
- bowel effect [10, 13]: bowel movements
- withdrawal symptoms [10, 13]: some additional peripheral, but no central, withdrawal symptoms

SMILES: O=C1CC[C@@]2(O)[C@H]3Cc4ccc(O)c5c4[C@@]2(CCN3CC2CC2)[C@H]1O5 [naltrexone]
- potency in blocking peripheral and central opioid analgesic effects [11]: equally potent
- withdrawal elicited by the antagonist [12]: robust withdrawal
